In US10208007B2, “Use of strigolactones and strigolactone analogs for treating proliferative conditions” (The State of Israel, Ministry of Agriculture & Rural …, priority 2011, dated 2019):

How the values were obtained:
Type in all cases: cell-based, human
MDA-MB-436 = test: Cell cycle analysis (propidium iodide, flow cytometry); conditions: 10 ppm, 48 hours
Procedure: (§1) Adherent cells were trypsinyzed, washed twice with PBS and filtered through a […] cell sieve. DNA content was assessed by flow cytometry. Cells were seeded at densities of 1.5×10^5 cells (MDA-MB-231, MDA-MB-436), or 4×10^5 cells (MCF-7 and MCF10A), or 2×10^5 cells (SW480, HT-29), or 5×10^5 cells (HCT116), per well in DMEM with 10% FBS in 6-well plate culture dishes. […] After 48 hours, cells were washed twice with PBS (pH 7.4), centrifuged at 360 g for 10 minutes at 4° C., and fixed in chilled ethanol (70%; v/v in PBS) with gentle vortex mixing. To determine their DNA contents, the cells were stained with 40 μg/ml propidium iodide (hereinafter PI) and analyzed using a FACSCalibur flow cytometer and CellQuest analysis software (Becton Dickinson, San Jose, Calif.). Where phosphoHistone-H3 staining was carried out, cells were incubated with polyclonal antibody against phosphoHistone H3 and then with secondary Goat anti-rabbit IgG-conjugated to FITC prior to PI staining.

MCF-7 = test: as above; conditions: 10 ppm, 48 hours
Procedure: as §1

ALDH1 = test: Aldefluor ALDH expression; conditions: MCF-7 primary mammospheres; reduced from 6%
Procedure: MCF-7 mammospheres were trypsinized, gently vortexed and passed through a 40 uM cell filter to produce single cell suspensions. Cells (5×10^5) were washed and re-suspended in growth media (Lonza). To identify the Aldefluor-stained cell population with ALDH1 enzymatic activity, the Aldefluor kit (Stem Cell Technologies), which is designed for optimal identification and isolation of stem cells through specific interaction with human ALDH1 was used. Briefly, cells were suspended in Aldefluor assay buffer containing uncharged ALDH1-substrate, BODIPY-aminoacetaldehyde (BAAA), and incubated for 45 min at 37° C., with gently vortexing every 15 min. BAAA is taken up by living cells through passive diffusion and then converted by intracellular ALDH into a negatively charged reaction product BODIPY-aminoacetate, which is retained inside cells expressing high levels of ALDH1, causing the cells to become brightly fluorescent. Fluorescent ALDH1-expressing cells were detected in the green fluorescence channel (520-540 nm) of a FACScan instrument (BD Biosciences). […] PI (Sigma) fluorescence was detected using the orange fluorescence channel. Cells incubated with BAAA and DEAB were used to establish the baseline fluorescence of cells and ALDH1-positive fraction. Data were analyzed by using Cell Quest software (BD Biosciences). […]

Cyclin B1 mRNA = test: Quantitative Real-time PCR of Cyclin B1 mRNA
Procedure: Primers were designed using PrimerQuest software (Integrated DNA Technologies). RNA was extracted using Trizol (Invitrogen, Carlsbad, Calif., USA) using the manufacturer's protocol. 1 μg RNA was reverse-transcribed in a total volume of 20 μl using the Superscript First strand cDNA synthesis kit (Invitrogen). PCR was performed in triplicate using an ABI-Prism 7900 instrument (Applied Biosystems, Foster City, Calif.) and SYBR Green I detection (Applied Biosystems) according to the manufacturer's protocol. The expression of each target gene was normalized to the expression of GAPDH RNA and is presented as the ratio of the target gene to GAPDH RNA, expressed as 2-ΔCt, where Ct is the threshold cycle and ΔCt=Ct Target−Ct GAPDH.
No change in cyclin B1 levels were detected at earlier time points. The dephosphorylation of Cdk1 (Cdc2) at Thr14 is a critical event for its activation, permitting mitotic entry. Cdk1 protein levels remained unaltered, as did pT14Cdc2 levels (FIG. 17B). Quantitative Real-time PCR was carried out to determine whether Cyclin B1 inhibition was partially at the transcriptional level.

Compound	Increase in the sub-G1/apoptotic fraction compared to vehicle (MDA-MB-436) [fold]	Change in the subG1 fraction (MCF-7)	ALDH activity (ALDH positive cells) after treatment (ALDH1) [%]	Cyclin B1 mRNA compared to vehicle controls (Cyclin B1 mRNA; A549, 10 ppm)	Cyclin B1 mRNA compared to vehicle controls (Cyclin B1 mRNA; HCT116, 10 ppm)
CC1=C[C@H](O/C=C2/C(=O)O[C@@H]3c4ccccc4C[C@H]23)OC1=O (relative stereo) [GR-24, (3aR*,8bS*,E)-3-(((R*)-4-methyl-5-oxo-2,5-dihydrofuran-2-yloxy)methylene)-3,3a,4,8b-tetrahydro-2H-indeno[1,2-b]furan-2-one]	3.4	no change	2	–	–
CC1=CC(O/C=C2\Cc3c(n(C)c4cc(-c5cccs5)ccc34)C2=O)OC1=O (racemic) [MEB-55, (±) 2E-4-methyl-2-(4-methyl-5-oxo-2,5-dihydrofuran-2-yloxymethylene)-6-thiophen-2-yl-1,4-dihydro-2H-cyclopenta[b]indol-3-one]	–	–	–	two fold decrease	two fold decrease
